Assay results published in publication PMC11320730, “5-Methoxy-2-aminoindane Reverses Diet-Induced Obesity and Improves Metabolic Parameters in Mice: A Potential New Class of Antiobesity Therapeutics” (ACS Pharmacology & Translational Science, 2024).
pKi: −log10 of the molar value.

Tests used:
[1] = test system: DIO C57BL/6 mice; assay: Blood biochemistry in DIO mice; format: in vivo; conditions: 40 mg/kg/day
Protocol: Male C57BL/6 mice were used to establish DIO by feeding them a high-fat diet (HFD; 60% cal/L fat, 20% cal/L protein, and 20% cal/L carbohydrates; Research Diet, D12492) for 18 weeks. After this period, mice were treated with either vehicle (sterile water, N = 8) or MEAI (N = 11) daily for 28 days by gavage at a dose of 40 mg/kg/day. Age-matched control mice (N = 10) on a standard diet (STD; 14% kcal fat, 24% kcal protein, 62% kcal carbohydrates; NIH-31 rodent diet) received vehicle daily. The body weight of all mice was monitored daily, and total body fat and lean mass were determined by EchoMRI-100H (Echo Medical Systems LLC, Houston, Texas, USA). On day 29, at the end of the experimental period, mice were euthanized by a cervical dislocation under anesthesia. The kidneys, brain, liver, and fat pads were removed and weighed, and samples were either snap-frozen or fixed in buffered 4% formalin. Trunk blood was collected to determine the biochemical parameters.
Serum levels of alanine aminotransferase (ALT), aspartate aminotransferase (AST), alkaline phosphatase (ALP), cholesterol, triglycerides, high-density lipoprotein (HDL), and low-density lipoprotein (LDL) were quantified post-termination using the Cobas C-111 chemistry analyzer (Roche, Switzerland). Fasting blood glucose was measured using the Contour glucometer (Bayer, Pittsburgh, Pennsylvania, USA), while serum insulin was determined using an Ultra-Sensitive Mouse Insulin ELISA kit (Cat# 90080, Crystal Chem, Inc., Elk Grove Village, Illinois, USA). Serum-free fatty acid content was determined using a Free Fatty Acid Assay Kit (Cat# ab65341, Abcam, Cambridge, UK).

[2] = target: T1, 5-HT1A (Homo sapiens, UniProt P08908); assay: Ligand binding assay (Eurofins); conditions: read-out: inhibitory activity (% inhibition of the binding of a specific ligand)
T1 construct: Eurofins (contract screening service)
Protocol: (§1) MEAI at 10 μM was tested in ligand binding assays at Eurofins Inc., as described previously.[20] Compound binding was calculated as a % inhibition of the binding of a ligand specific for each target. Results showing an inhibition or stimulation higher than 50% are considered to represent significant effects of MEAI. In each experiment, and if applicable, the respective reference compound was tested concurrently with MEAI and the data were compared with historical values determined at Eurofins. The experiment was accepted in accordance with the Eurofins validation Standard Operating Procedure.

[3] = target: T2, 5-HT2A (Homo sapiens, UniProt P28223); assay: Ligand binding assay (Eurofins); conditions: read-out: inhibitory activity (% inhibition of the binding of a specific ligand)
T2 construct: Eurofins (contract screening service)
Protocol: as §1

[4] = target: T3, MAO-A enzyme (Homo sapiens, UniProt P21397); assay: Ligand binding assay (Eurofins); conditions: read-out: inhibitory activity (% inhibition of the binding of a specific ligand)
T3 construct: Eurofins (contract screening service)
Protocol: as §1

[5] = target: T4, dopamine D2 receptor (Homo sapiens, UniProt P14416); assay: Ligand binding assay (Eurofins); conditions: read-out: inhibitory activity (% inhibition of the binding of a specific ligand)
T4 construct: Eurofins (contract screening service)
Protocol: as §1

[6] = target: 5-HT2B receptor; set-up: method as in PMID 30904940; conditions: cited from earlier work
[7] = test system: norepinephrine transporter (NET); set-up: method as in PMID 30904940; conditions: cited from earlier work
[8] = test system: MAO-B; set-up: method as in PMID 29458138; conditions: cited from earlier work

T4 sequence (P14416 whole entry, species assumed): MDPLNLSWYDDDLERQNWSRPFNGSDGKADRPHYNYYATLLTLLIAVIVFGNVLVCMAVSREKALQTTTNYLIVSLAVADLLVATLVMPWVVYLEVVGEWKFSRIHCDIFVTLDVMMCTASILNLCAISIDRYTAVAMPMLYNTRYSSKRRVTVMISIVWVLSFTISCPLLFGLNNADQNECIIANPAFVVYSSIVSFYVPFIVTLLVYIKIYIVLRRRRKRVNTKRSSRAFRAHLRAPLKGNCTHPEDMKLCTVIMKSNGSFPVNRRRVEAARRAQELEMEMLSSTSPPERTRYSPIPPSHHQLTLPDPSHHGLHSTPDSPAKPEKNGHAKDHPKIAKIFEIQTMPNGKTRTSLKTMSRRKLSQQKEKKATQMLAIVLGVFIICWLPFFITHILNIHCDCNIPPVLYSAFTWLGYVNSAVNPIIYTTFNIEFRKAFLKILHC
T2 sequence (P28223 whole entry): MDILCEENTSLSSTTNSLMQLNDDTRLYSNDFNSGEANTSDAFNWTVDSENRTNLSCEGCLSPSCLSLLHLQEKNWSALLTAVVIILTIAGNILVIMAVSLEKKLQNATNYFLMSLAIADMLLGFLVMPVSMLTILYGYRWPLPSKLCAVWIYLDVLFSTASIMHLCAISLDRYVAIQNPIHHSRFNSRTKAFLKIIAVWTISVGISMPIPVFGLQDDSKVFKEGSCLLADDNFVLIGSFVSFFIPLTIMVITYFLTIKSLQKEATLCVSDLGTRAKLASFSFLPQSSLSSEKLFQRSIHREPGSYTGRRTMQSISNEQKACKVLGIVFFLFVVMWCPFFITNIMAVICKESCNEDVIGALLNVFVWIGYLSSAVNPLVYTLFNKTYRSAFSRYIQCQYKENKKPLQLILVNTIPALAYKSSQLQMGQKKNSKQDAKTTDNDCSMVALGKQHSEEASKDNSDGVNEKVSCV
T3 sequence (P21397 whole entry, species assumed): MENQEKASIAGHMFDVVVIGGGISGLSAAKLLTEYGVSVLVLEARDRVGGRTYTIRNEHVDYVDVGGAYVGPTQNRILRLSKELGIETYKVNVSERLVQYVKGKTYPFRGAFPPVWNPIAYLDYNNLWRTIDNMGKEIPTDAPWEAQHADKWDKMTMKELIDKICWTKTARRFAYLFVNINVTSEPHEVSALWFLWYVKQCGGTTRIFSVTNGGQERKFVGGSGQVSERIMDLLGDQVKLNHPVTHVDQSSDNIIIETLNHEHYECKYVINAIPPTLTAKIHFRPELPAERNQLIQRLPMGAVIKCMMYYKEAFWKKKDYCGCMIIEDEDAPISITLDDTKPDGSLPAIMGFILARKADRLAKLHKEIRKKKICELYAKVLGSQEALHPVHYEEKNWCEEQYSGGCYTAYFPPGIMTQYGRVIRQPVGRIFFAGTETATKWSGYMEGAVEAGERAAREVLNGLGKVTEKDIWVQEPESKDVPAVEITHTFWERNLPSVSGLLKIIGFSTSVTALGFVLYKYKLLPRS
T1 sequence (P08908 whole entry, species assumed): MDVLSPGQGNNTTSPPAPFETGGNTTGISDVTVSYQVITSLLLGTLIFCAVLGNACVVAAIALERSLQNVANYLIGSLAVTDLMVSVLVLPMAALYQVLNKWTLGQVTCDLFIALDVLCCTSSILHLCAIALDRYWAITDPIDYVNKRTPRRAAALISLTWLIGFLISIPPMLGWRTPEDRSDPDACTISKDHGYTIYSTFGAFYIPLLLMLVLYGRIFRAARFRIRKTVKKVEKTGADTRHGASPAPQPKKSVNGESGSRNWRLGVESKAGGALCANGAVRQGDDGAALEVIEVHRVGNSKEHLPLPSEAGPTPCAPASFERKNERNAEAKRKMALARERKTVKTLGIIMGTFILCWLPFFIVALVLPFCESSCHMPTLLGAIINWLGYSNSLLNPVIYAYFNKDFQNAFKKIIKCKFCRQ

COc1ccc2c(c1)CC(N)C2.Cl (centres unmarked) [MEAI, 2,3-Dihydro-5-methoxy-1H-inden-2-amine hydrochloride]
insulin levels [1]: reduced | circulating leptin levels ([1]; 28 days, vs HFD vehicle): effectively countered the HFD-induced elevation | serum serotonin levels ([1]; 28 days, vs HFD vehicle): did not significantly alter | circulating levels of adiponectin ([1]; across all groups): remained unchanged | circulating triglyceride levels ([1]; across all groups): remained largely unchanged | HDL levels ([1]; serum): without a significant change | HDL-to-LDL ratio ([1]; serum): positive shift | free fatty acids ([1]; serum): trend toward reduced | total cholesterol levels ([1]; serum, did not reach statistical significance): downward trend | LDL ([1]; serum, vs HFD vehicle): significant decrease | ALP levels ([1]; serum, vs HFD-vehicle): significantly reduced | ALT levels ([1]; serum, vs HFD-vehicle): did not significantly alter | AST levels ([1]; serum, vs HFD-vehicle): did not significantly alter | inhibition at 10 µM [2]: > 50% | inhibition at 10 µM [3]: > 50% | inhibition at 10 µM [4]: > 50% | inhibition at 10 µM [5]: > 50% | pKi [6]: 5.32 | interaction with transporter [7]: interacts | binding inhibition [8]: unaffected
